Assay results published in article PMC6152024 (Molecules : A Journal of Synthetic Chemistry and Natural …, 2017).

Key:
CYP3A [1] = target: T1, CYP3A (Homo sapiens, UniProt P08684); test: Effect on DCCTX production from CTX in HLMs; format: in vitro ADME; conditions: 10 µM inhibitor, HLMs 0.5 mg/mL, CTX substrate; 60 min
Method: The effect of Gom A on CYP3A metabolism of CTX in HLMs was investigated. […] Considering the difficulty for direct CAA determination, DCCTX was assayed to reflect CAA production using an established UHPLC-MS method (II).
The CYP3A inhibitor ketoconazole (Keto) was used as positive control. Briefly, various concentrations of Gom A and Keto (0.01, 0.1, 1 and 10 µM) were incubated with HLMs (0.5 mg/mL) in PBS (0.1 M) containing NADPH-gs and 100 µM CTX in a total volume of 200 µL. After a 5 min warm up period, reactions were initiated with addition of NADPH-gs. Incubations were conducted at 37 °C for 60 min and then terminated by the addition of 200 µL ice-cold acetonitrile containing 6 ng/mL of TNZ (IS-II).

CYP3A [2] = target: T1, CYP3A; test: Reversible CYP3A inhibition, testosterone 6β-hydroxylation in human liver microsomes; format: in vitro ADME; conditions: HLMs, Lineweaver-Burk plot
Method: A NADPH regenerating system (NADPH-gs, containing 10 mM glucose-6-phosphate, 5 mM magnesium chloride, 1 U/mL glucose-6-phosphate dehydrogenase and 1 mM NADP+) was constructed. The metabolite of Tes, 6OH-Tes, was assayed by UHPLC-MS method (I) for CYP3A activity assessment.
The CYP3A inhibition by Gom A was preliminarily evaluated. […] After a 5 min warm up period, reactions were initiated with addition of NADPH-gs. Incubations were conducted at 37 °C for 10 min and then terminated by the addition of 200 µL ice-cold acetonitrile containing 18 ng/mL phenacetin (IS-I). […] Incubations were processed and terminated as described earlier.
Pharmacokinetic profiles of CTX and DCCTX were estimated by one-compartmental model using the DAS 2.0 software ([…], Medical College of Wannan, Anhui, China). Data were expressed as mean ± SD. Comparisons between two groups were performed using one-way ANOVA followed by LSD test in the condition of variance homogeneity or Dunnett T3 test in the case of variance heterogeneity. […] IC50 values of Gom A were determined by nonlinear regression analysis using GraphPad Prism 5.01 software (GraphPad Software Inc., San Diego, CA, USA). The mode of inhibition was verified by Lineweaver-Burk plots of the enzyme kinetic data, and the KI value was determined by linear regression analysis with GraphPad Prism 5.01 (GraphPad Software Inc.). […]

hepatic CYP3A mRNA = test: CYP3A expression assay (real-time PCR) in rat liver; format: in vivo; conditions: normalized to GAPDH
Method: Rats were randomly divided into four groups (groups A−D, n = 5), respectively. In brief, rats in group A (vehicle control group) were i.g. administered with saline (10 mL/kg), and were euthanized 72 h later. Rats in groups B−D were i.g. administered with Gom A at dose of 20.8 mg/kg (50 µmol/kg, same with pharmacokinetic study), and euthanized 24, 48 and 72 h respectively after Gom A treatment. After euthanization, rat livers were immediately collected, washed with ice-cold saline, and stored at −80 °C for CYP3A protein expression assay.
To determine CYP3A mRNA content in rat liver, the liver samples were homogenized and the total RNA was extracted from liver samples using RNeasy Mini Kit according to the manufacturer’s instructions (Qiagen). The concentration of total RNA was determined by UV spectra at 260/280 nm, and the purity was determined by calculating the ration of UV absorbance. 2 µg of total RNA in a total volume of 50 µL (1 µg/25 µL) was reverse transcribed into template cDNA using dNTP mix (1 mM), random primers (0.5 µg/mL), AMV RT (22 U/µL), MgCl2 (25 mM) and RT buffer (10×).
For qRT-PCR, forward and reverse primer sequences (Table 2) of CYP3A gene were used. In a Stratagene Mx3005P sequence detection system (Agilent Technologies Agilent, Santa Clara, CA, USA), 50 ng of cDNA/sample and 10 µM forward and reverse primers were added to a total reaction mixture of 20 µL of SYBR Select Master Mix (Invitrogen). GAPDH was applied as the house-keeping gene. All assays were performed in triplicate. […] The CYP3A mRNA levels of groups A−D were expressed as a ratio of induced to vehicle control group (group A).

T1 sequence (P08684 2-503): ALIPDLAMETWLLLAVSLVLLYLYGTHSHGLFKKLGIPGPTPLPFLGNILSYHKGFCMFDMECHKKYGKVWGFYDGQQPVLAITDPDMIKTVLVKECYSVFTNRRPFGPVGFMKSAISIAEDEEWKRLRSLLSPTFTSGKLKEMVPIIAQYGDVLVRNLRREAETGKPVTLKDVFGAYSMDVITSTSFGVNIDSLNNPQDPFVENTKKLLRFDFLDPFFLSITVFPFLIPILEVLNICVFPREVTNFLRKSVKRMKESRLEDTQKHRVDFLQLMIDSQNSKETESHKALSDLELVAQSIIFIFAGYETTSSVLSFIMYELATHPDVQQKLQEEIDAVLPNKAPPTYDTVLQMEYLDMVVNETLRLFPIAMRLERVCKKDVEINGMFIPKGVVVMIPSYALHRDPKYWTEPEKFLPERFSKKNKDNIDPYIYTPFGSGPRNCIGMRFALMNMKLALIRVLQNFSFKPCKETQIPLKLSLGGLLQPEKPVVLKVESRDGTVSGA

Gomisin A [Gom A]
DCCTX production, % of that in control group (CYP3A [1]): 15%
mode of inhibition (CYP3A [2]): competitive inhibitor
hepatic CYP3A mRNA expression increase vs vehicle group (hepatic CYP3A mRNA; 24 h after single dose Gom A 20.8 mg/kg i.g.): 73 fold
hepatic CYP3A mRNA expression increase vs vehicle group (hepatic CYP3A mRNA; 48 h after single dose Gom A 20.8 mg/kg i.g.): 18 fold
hepatic CYP3A mRNA expression increase vs vehicle group (hepatic CYP3A mRNA; 72 h after single dose Gom A 20.8 mg/kg i.g.): 8 fold
